Results from PMC8294059, “Identification and Immune Assessment of T Cell Epitopes in Five Plasmodium falciparum Blood Stage Antigens to Facilitate Vaccine Candidate Selection and Optimization” (Frontiers in Immunology, 2021).
Where a SMILES comes first, the peptide text is derived from it.

Legend:
HLA-B*0702 = HLA-B*0702 (Homo sapiens, UniProt P01889); assay: In vitro class I HLA binding assay (fluorescence polarization competition); conditions: allele B*0702; fluorescence polarization competition; read-out: IC50 (nM), in vitro HLA binding affinity
Protocol: A cell-free class I HLA binding assay that allows for in vitro quantification of peptide-HLA binding affinity in a competition format was used. In this assay, a fluorescently labeled, high binding, control peptide is loaded onto 384-well ½-area plates along with unlabeled experimental peptides. To remove endogenous peptides and render the HLA A and B molecules receptive to binding, HLA is heated at 53°C for 15 minutes and immediately added to the assay. The mixture is then allowed to stand for three days. […] Binding of experimental peptides is expressed as the percent inhibition of the labeled control peptide (experimental fluorescence / control fluorescence, multiplied by 100). The percent inhibition values for each experimental peptide (across a range of molar concentrations) are used to calculate the concentration which inhibits 50% of the labeled control peptide’s specific binding. This value is referred to as the peptide’s IC50.

HLA-DRB1*0801 = HLA-DRB1*0801 (Homo sapiens, UniProt P01903+P01911, A100R/A103L/A169T/D86S/F76Y/H45Y/I96F/K41T/L162R/M171V/P40S/Q125H/Q178H/Q39Y/Q99D/R218S/R42G/S66Y/V115G/W38E); assay: biochemical; type: binding; conditions: binding inhibition assay; NB = non-binder (no dose-dependent inhibition); read-out: DRB1*0801 IC50
Outline: (§1)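 HLA-peptide complexes are captured with anti-HLA-DR antibody, and bound reference is quantified by europium-probe time-resolved fluorescence.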

HLA-DRB1*1501 = target: T1, HLA-DRB1*1501 (Homo sapiens, UniProt P01903+P01911); assay: biochemical; type: binding; conditions: binding inhibition assay; NB = non-binder (no dose-dependent inhibition); read-out: DRB1*1501 IC50
T1 construct: purchased
Outline: as §1

HLA-DRB1*1101 = HLA-DRB1*1101 (Homo sapiens, UniProt P01903+P01911, A100R/A169T/A87E/I96F/K41T/L162R/M171V/P40S/Q125H/Q178H/Q39Y/Q99D/R42S/S66Y/T262R/V115G/W38E); assay: biochemical; type: binding; conditions: binding inhibition assay; NB = non-binder (no dose-dependent inhibition); read-out: DRB1*1101 IC50
Outline: as §1

HLA-DRB1*0701 = HLA-DRB1*0701 (Homo sapiens, UniProt P01903+P01911, A100R/A102G/A103Q/D57E/D86V/E43K/F76Y/K127E/L162R/M171V/P40G/Q125H/Q99D/R33Q/R42Y/R54Q/S133A/S66F/T210M/V115G/Y107V/Y59L/Y89S); assay: biochemical; type: binding; conditions: binding inhibition assay; NB = non-binder (no dose-dependent inhibition); read-out: DRB1*0701 IC50
Outline: as §1

HLA-DRB1*0101 = target: T2, HLA-DRB1*0101 (Homo sapiens, UniProt P01903+P01911, A100R/D57E/F55L/F60I/F76Y/I96L/L162R/M171V/P40L/Q125E/R42F/V115G/Y59C); assay: biochemical; type: binding; conditions: binding inhibition assay; NB = non-binder (no dose-dependent inhibition); read-out: DRB1*0101 IC50
T2 construct: purchased
Outline: as §1

HLA-DRB1*1301 = HLA-DRB1*1301 (Homo sapiens, UniProt P01903+P01911, A100E/A169T/K41T/L162R/M171V/P40S/Q125H/Q178H/Q39Y/Q99D/R42S/S66N/T262R/W38E/Y61H); assay: biochemical; type: binding; conditions: binding inhibition assay; NB = non-binder (no dose-dependent inhibition); read-out: DRB1*1301 IC50
Outline: as §1

HLA-DRB1*0401 = target: T3, HLA-DRB1*0401 (Homo sapiens, UniProt P01903+P01911, A100K/A169T/F76Y/I96L/K127E/L162R/M171V/N62H/P40V/Q125Y/R42H/S133A/S149N/S66Y/V115G/V209L/W38E); assay: biochemical; type: binding; conditions: binding inhibition assay; NB = non-binder (no dose-dependent inhibition); read-out: DRB1*0401 IC50
T3 construct: purchased
Outline: as §1

Structure (SMILES)	IC50 (HLA-B*0702)	IC50 (HLA-DRB1*0801)	IC50 (HLA-DRB1*1501)	IC50 (HLA-DRB1*1101)	IC50 (HLA-DRB1*0701)	IC50 (HLA-DRB1*0101)	IC50 (HLA-DRB1*1301)	IC50 (HLA-DRB1*0401)
CC(C)C[C@H](NC(=O)[C@H](CC(N)=O)NC(=O)[C@H](CCCCN)NC(=O)[C@H](CCCNC(=N)N)NC(=O)[C@@H]1CCCN1C(=O)[C@@H](N)CS)C(=O)N[C@@H](CCC(N)=O)C(=O)N[C@@H](CC(N)=O)C(=O)N[C@@H](C)C(=O)O [AMA1_302] (H-CPRKNLQNA-OH)	484 nM	–	–	–	–	–	–	–
CC[C@H](C)[C@H](NC(=O)[C@@H]1CCCN1C(=O)[C@@H](N)Cc1c[nH]cn1)C(=O)N[C@@H](CCC(=O)O)C(=O)N[C@H](C(=O)N[C@@H](CCC(=O)O)C(=O)N[C@@H](CC(N)=O)C(=O)N[C@@H](CC(N)=O)C(=O)N[C@@H](Cc1ccccc1)C(=O)O)C(C)C [AMA1_433] (H-HPIEVENNF-OH)	310000 nM	–	–	–	–	–	–	–
CC(C)C[C@H](NC(=O)[C@@H](NC(=O)[C@@H]1CCCN1C(=O)[C@@H](NC(=O)[C@@H](NC(=O)[C@H](Cc1c[nH]cn1)NC(=O)[C@H](CO)NC(=O)[C@H](C)NC(=O)[C@@H](N)CCCNC(=N)N)[C@@H](C)O)[C@@H](C)O)C(C)C)C(=O)O [AMA1_608] (H-RASHTTPVL-OH)	258 nM	–	–	–	–	–	–	–
CC[C@H](C)[C@H](N)C(=O)N1CCC[C@H]1C(=O)N[C@@H](Cc1ccccc1)C(=O)N[C@@H](Cc1c[nH]cn1)C(=O)N[C@@H](CCCCN)C(=O)N[C@@H](CCCCN)C(=O)N[C@@H](Cc1ccccc1)C(=O)N[C@H](C(=O)N[C@@H](CO)C(=O)N[C@@H](Cc1ccccc1)C(=O)O)[C@@H](C)CC [CYRPA_003] (H-IPFHKKFISF-OH)	21900 nM	–	–	–	–	–	–	–
CC[C@H](C)[C@H](NC(=O)[C@H](Cc1ccc(O)cc1)NC(=O)[C@@H]1CCCN1C(=O)[C@@H](N)CCCNC(=N)N)C(=O)N[C@@H](CO)C(=O)N[C@@H](CCCCN)C(=O)N[C@@H](CC(N)=O)C(=O)N[C@@H](CC(=O)O)C(=O)N[C@@H](CC(C)C)C(=O)O [CYRPA_229] (H-RPYISKNDL-OH)	244 nM	–	–	–	–	–	–	–
CC[C@H](C)[C@H](NC(=O)[C@H](CCCCN)NC(=O)[C@H](CCC(=O)O)NC(=O)[C@@H](NC(=O)[C@H](CO)NC(=O)[C@H](CC(=O)O)NC(=O)[C@H](CCCNC(=N)N)NC(=O)[C@H](CC(N)=O)NC(=O)[C@H](CC(C)C)NC(=O)[C@@H](NC(=O)[C@@H](NC(=O)[C@H](Cc1ccc(O)cc1)NC(=O)[C@@H](NC(=O)[C@H](Cc1ccc(O)cc1)NC(=O)[C@H](CCCCN)NC(=O)[C@H](CC(N)=O)NC(=O)[C@H](CC(C)C)NC(=O)[C@H](Cc1ccc(O)cc1)NC(=O)[C@H](C)NC(=O)[C@H](Cc1ccc(O)cc1)NC(=O)[C@H](CC(=O)O)NC(C)=O)C(C)C)[C@@H](C)O)[C@@H](C)CC)[C@@H](C)O)C(=O)N[C@@H](CCCCN)C(=O)N[C@H](C(=O)N[C@@H](Cc1ccccc1)C(N)=O)[C@@H](C)O [RIPR_002] (Ac-DYAYLNKYVYTILNRDSTEKIKTF-NH2)	–	16.1 µM	0.201 µM	1.47 µM	6.91 µM	0.152 µM	50.4 µM	16.7 µM
CC(=O)N[C@H](C(=O)N[C@@H](CO)C(=O)N[C@@H](CS)C(=O)N[C@@H](Cc1ccc(O)cc1)C(=O)N[C@@H](CCCNC(=N)N)C(=O)N[C@H](C(=O)N[C@@H](CO)C(=O)N[C@@H](Cc1ccccc1)C(=O)N[C@@H](CC(N)=O)C(=O)N[C@@H](CC(C)C)C(=O)N[C@@H](CC(N)=O)C(=O)N[C@@H](CCCCN)C(=O)N[C@@H](CC(C)C)C(=O)N[C@@H](CCCCN)C(=O)N[C@@H](Cc1ccc(O)cc1)C(=O)N[C@H](C(=O)N[C@H](C(=O)N[C@@H](CCC(=O)O)C(=O)N[C@@H](CO)C(N)=O)[C@@H](C)O)C(C)C)C(C)C)C(C)C [RIPR_006] (Ac-VSCYRVSFNLNKLKYVTES-NH2)	–	11.3 µM	6.96 µM	9.32 µM	0.952 µM	0.446 µM	11.5 µM	8.78 µM
CC[C@H](C)[C@H](NC(=O)[C@H](CC(N)=O)NC(=O)[C@H](CCC(N)=O)NC(=O)[C@H](CC(N)=O)NC(=O)[C@H](CC(N)=O)NC(=O)[C@H](Cc1ccccc1)NC(=O)[C@@H](NC(=O)[C@H](CS)NC(=O)[C@H](CC(C)C)NC(=O)[C@H](Cc1ccc(O)cc1)NC(=O)[C@H](CC(=O)O)NC(=O)[C@@H](N)Cc1ccc(O)cc1)C(C)C)C(=O)N[C@H](C(=O)N[C@@H](CO)C(=O)N[C@@H](CC(=O)O)C(=O)N[C@@H](CCCCN)C(=O)N[C@@H](CC(N)=O)C(N)=O)[C@@H](C)O [RIPR_007] (H-YDYLCVFNNQNITSDKN-NH2)	–	99 µM	0.165 µM	8.65 µM	3.05 µM	2.78 µM	9.26 µM	4.6 µM
CC[C@H](C)[C@H](NC(=O)[C@H](CCC(=O)O)NC(=O)[C@@H](NC(=O)[C@H](CCCCN)NC(=O)[C@H](CCCCN)NC(C)=O)C(C)C)C(=O)N[C@@H](Cc1ccccc1)C(=O)N[C@@H](CCCNC(=N)N)C(=O)N[C@@H](CO)C(=O)N[C@@H](CCCNC(=N)N)C(=O)N[C@@H](Cc1ccccc1)C(=O)N[C@@H](CO)C(=O)N[C@@H](CO)C(=O)N[C@@H](CCCCN)C(=O)N[C@@H](CC(C)C)C(=O)N[C@@H](CCC(N)=O)C(=O)N[C@@H](CS)C(=O)N[C@@H](CCC(N)=O)C(N)=O [RIPR_011] (Ac-KKVEIFRSRFSSKLQCQ-NH2)	–	65.6 µM	0.007 µM	9.22 µM	13.7 µM	1.36 µM	9.43 µM	22 µM
CC[C@H](C)[C@H](NC(=O)[C@H](CS)NC(=O)[C@H](CCC(=O)O)NC(=O)CNC(=O)[C@H](CCCNC(=N)N)NC(=O)[C@H](CO)NC(=O)[C@H](CO)NC(=O)[C@H](CCCNC(=N)N)NC(=O)[C@H](Cc1ccc(O)cc1)NC(=O)[C@H](Cc1ccc(O)cc1)NC(=O)[C@H](Cc1c[nH]cn1)NC(=O)[C@H](CCC(=O)O)NC(=O)[C@H](CCCCN)NC(C)=O)C(=O)N[C@@H](CC(C)C)C(=O)N[C@@H](CC(N)=O)C(=O)N[C@@H](CC(=O)O)C(N)=O [RIPR_017] (Ac-KEHYYRSSRGECILND-NH2)	–	6.44 µM	58.2 µM	1.38 µM	0.489 µM	0.025 µM	> 100 µM	> 100 µM
CC[C@H](C)[C@H](NC(=O)[C@H](CCCCN)NC(=O)[C@H](CCCCN)NC(=O)[C@H](CCCCN)NC(=O)[C@H](CC(C)C)NC(=O)[C@H](Cc1ccc(O)cc1)NC(=O)[C@@H](NC(=O)[C@@H](NC(=O)[C@@H](NC(=O)[C@H](Cc1c[nH]cn1)NC(=O)[C@H](Cc1ccccc1)NC(=O)[C@@H](NC(=O)[C@H](CCC(=O)O)NC(=O)[C@H](CC(N)=O)NC(C)=O)[C@@H](C)CC)[C@@H](C)O)[C@@H](C)CC)[C@@H](C)CC)C(=O)NCC(=O)N[C@@H](CC(N)=O)C(=O)N[C@@H](CO)C(=O)N[C@H](C(=O)N[C@H](C(=O)N[C@@H](Cc1ccc(O)cc1)C(=O)N[C@@H](CC(=O)O)C(N)=O)[C@@H](C)CC)C(C)C [RIPR_019] (Ac-NEIFHTIIYLKKKIGNSVIYD-NH2)	–	1.35 µM	0.898 µM	0.066 µM	3.86 µM	0.346 µM	3.49 µM	3.03 µM
